In patent US20210179600A1, “OXAZOLE AND THIAZOLE DERIVATIVES AS INHIBITORS OF ASK1” (Hepagene Therapeutics (HK) Limited, priority 2017, published 2021) one finds EC50 data, which are given here for 27 molecules.

The assay has as its target T1, Recombinant human ASK1 kinase (Homo sapiens, UniProt Q99683).
T1 construct: purchased Invitrogen Inc
T1 sequence (Q99683 1-1374): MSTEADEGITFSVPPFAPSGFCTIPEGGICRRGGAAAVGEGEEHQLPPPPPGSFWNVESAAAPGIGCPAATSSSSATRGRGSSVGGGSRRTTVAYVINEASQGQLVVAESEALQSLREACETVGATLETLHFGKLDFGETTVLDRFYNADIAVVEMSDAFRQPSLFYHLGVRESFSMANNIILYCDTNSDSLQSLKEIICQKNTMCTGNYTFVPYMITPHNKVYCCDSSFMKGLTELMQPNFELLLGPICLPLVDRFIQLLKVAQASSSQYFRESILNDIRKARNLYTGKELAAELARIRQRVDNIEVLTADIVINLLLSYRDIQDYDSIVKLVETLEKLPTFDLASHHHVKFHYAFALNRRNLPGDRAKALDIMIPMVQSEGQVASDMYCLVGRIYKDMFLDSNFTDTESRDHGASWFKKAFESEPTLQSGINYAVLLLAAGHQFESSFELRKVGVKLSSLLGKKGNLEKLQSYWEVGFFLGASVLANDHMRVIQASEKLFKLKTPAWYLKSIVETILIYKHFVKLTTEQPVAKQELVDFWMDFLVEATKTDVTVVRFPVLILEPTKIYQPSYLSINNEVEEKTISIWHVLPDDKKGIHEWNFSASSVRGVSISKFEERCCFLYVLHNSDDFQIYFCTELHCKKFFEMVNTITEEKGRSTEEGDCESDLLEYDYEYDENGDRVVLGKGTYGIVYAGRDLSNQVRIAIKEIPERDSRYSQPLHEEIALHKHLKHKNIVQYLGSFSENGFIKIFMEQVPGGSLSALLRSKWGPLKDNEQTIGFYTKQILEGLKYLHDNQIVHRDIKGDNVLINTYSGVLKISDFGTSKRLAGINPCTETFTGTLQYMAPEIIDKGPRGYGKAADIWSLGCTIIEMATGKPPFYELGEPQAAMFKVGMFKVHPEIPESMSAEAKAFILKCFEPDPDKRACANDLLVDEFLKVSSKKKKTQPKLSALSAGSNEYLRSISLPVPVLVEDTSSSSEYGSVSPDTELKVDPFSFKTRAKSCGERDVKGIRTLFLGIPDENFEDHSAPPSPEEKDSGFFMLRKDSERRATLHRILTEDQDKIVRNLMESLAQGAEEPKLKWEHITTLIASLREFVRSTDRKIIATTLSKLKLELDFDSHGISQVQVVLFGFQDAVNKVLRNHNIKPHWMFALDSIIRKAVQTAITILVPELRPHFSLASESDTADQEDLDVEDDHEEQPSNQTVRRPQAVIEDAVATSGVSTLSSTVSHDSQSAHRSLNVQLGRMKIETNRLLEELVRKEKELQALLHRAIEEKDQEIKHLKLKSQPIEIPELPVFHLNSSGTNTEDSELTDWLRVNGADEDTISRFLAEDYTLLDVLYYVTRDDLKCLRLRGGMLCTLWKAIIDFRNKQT
The assay can be described thus: ASK1 kinase HTRF assay (KinEASE-STK). The following applies: HTRF detection; 3 nM ASK1 kinase, 1 uM STK-substrate-biotin. It counts as biochemical. The procedure: Reagents: Recombinant human ASK1 kinase was from Invitrogen Inc. HTRF KinEASE™-STK S3 kit was obtained from Cisbio (Bedford, Mass.). All other reagents were of the highest grade commercially available.
Assay: The assay measures the phosphorylation level of a biotinylatd peptide substrate by the ASK1 kinase using HTRF detection. ASK1 kinase assay is based on HTRF KinEASE™-STK manual from Cisbio. Test compound, 1 uM STK-substrate-biotin, 3 nM of ASK1 kinase are incubated with 1*Kinase buffer with 5 mM MgCl2 and 1 mM DTT. 250 nM Sa-XL 665(4*) and STK-antibody-Cryptate work solution are added to stop the reaction and phosphorylated peptide substrate is detected using Envision 2104 Multilabeled reader from PerkinElmer. The fluorescence is measured at 615 nm (Cryptate) and 665 nm (XL665) and a ratio of 665 nm/615 nm is calculated for each well. The resulting TR-FRET level (a ratio of 665 nm/615 nm) is proportional to the phosphorylation level of substrate.
A general note: TR-FRET usually uses a lanthanide donor and a delayed reading to cut background.

The term EC50 denotes the midpoint of the concentration-response curve. With `CC(C)n1cnnc1-c1cccc(-c2ncc(-c3cccc(-c4ccncc4)c3)o2)n1` [Compound I-108], the concentration giving a half-maximal response (EC50) is no more than 50 nM.

Take `CC(C)n1cnnc1-c1cccc(-c2ncc(-c3cccc(C4CCOCC4)c3)o2)n1` [Compound I-109]: the concentration giving a half-maximal response (EC50) was no more than 50 nM.

`CC(C)n1cnnc1-c1cccc(-c2ncc(-c3cccc(N4CCOCC4)c3)o2)n1` [Compound I-110]: the EC50 is no more than 50 nM.

Take `C[C@H](CO)n1cnnc1-c1cccc(-c2ncc(-c3cccc(N4CCOCC4)c3)o2)n1` [Compound I-111]: the EC50 is no more than 50 nM.

Turning to `CC(C)n1cnnc1-c1cccc(-c2ncc(-c3ccc(N4CCOCC4)cc3F)o2)n1` [Compound I-112], the concentration giving a half-maximal response (EC50) lay within 500 to 5000 nM.

Turning to `CC(C)n1cnnc1-c1cccc(-c2ncc(-c3cccc(N4CCNCC4)c3)o2)n1` [Compound I-113], the EC50 is no more than 50 nM.

Turning to `C[C@H](CO)n1cnnc1-c1cccc(-c2ncc(-c3cccc(N4CCNCC4)c3)o2)n1` [Compound I-114], the concentration for a half-maximal effect (EC50) is no more than 50 nM.

For the molecule `CC(C)n1cnnc1-c1cccc(-c2ncc(-c3cccc(N4CCN(C)CC4)c3)o2)n1` [Compound I-115], the EC50 was no more than 50 nM.

Regarding `C[C@H](CO)n1cnnc1-c1cccc(-c2ncc(-c3cccc(N4CCN(C)CC4)c3)o2)n1` [Compound I-116], the EC50 is no more than 50 nM.

In the case of `CC(C)N1CCN(c2cccc(-c3cnc(-c4cccc(-c5nncn5C(C)C)n4)o3)c2)CC1` [Compound I-117], the concentration giving a half-maximal response (EC50) is no more than 50 nM.

Consider `CC(C)n1cnnc1-c1cccc(-c2ncc(-c3cccc(N4CCN(C5CC5)CC4)c3)o2)n1` [Compound I-118], for which the EC50 is no more than 50 nM.

On to `CC(C)n1cnnc1-c1cccc(-c2ncc(-c3cccc(N4CCN(S(C)(=O)=O)CC4)c3)o2)n1` [Compound I-119], for which the 50% effective concentration (EC50) is no more than 50 nM.

Turning to `CC(C)n1cnnc1-c1cccc(-c2ncc(-c3cccc(N4CCCCC4)c3)o2)n1` [Compound I-120], the concentration for a half-maximal effect (EC50) was 50 to 500 nM.

As for `CC(C)n1cnnc1-c1cccc(-c2ncc(-c3cccc(N4C5CCCC4CC5)c3)o2)n1` [Compound I-121], the EC50 lay within 50 to 500 nM.

On to `CC(C)n1cnnc1-c1cccc(-c2ncc(-c3cccc(N4CCC(N5CCOCC5)CC4)c3)o2)n1` [Compound I-122], for which the EC50 lay in the range of 50 to 500 nM.

For the molecule `CC(C)n1cnnc1-c1cccc(-c2ncc(-c3cccc(C4CCNCC4)c3)o2)n1` [Compound I-123], the EC50 was no more than 50 nM.

Take `CC(C)n1cnnc1-c1cccc(-c2ncc(-c3cccc(C4=CCN(C(=O)OC(C)(C)C)C4)c3)o2)n1` [Compound I-124]: the EC50 lay within 50 to 500 nM.

Regarding `CC(C)n1cnnc1-c1cccc(-c2ncc(-c3cccc(N4CCCC4)c3)o2)n1` [Compound I-125], the EC50 was no more than 50 nM.

In the case of `C[C@H](CO)n1cnnc1-c1cccc(-c2ncc(-c3cccc(N4CCCC4)c3)o2)n1` [Compound I-126], the concentration for a half-maximal effect (EC50) was no more than 50 nM.

On to `CC(C)n1cnnc1-c1cccc(-c2ncc(-c3cccc(N4CCC(N)C4)c3)o2)n1` (stereo not drawn) [Compound I-127], for which the half-maximal effective concentration (EC50) is no more than 50 nM.

In the case of `CC(C)n1cnnc1-c1cccc(-c2ncc(-c3cccc(N4CCC(NC(=O)OC(C)(C)C)C4)c3)o2)n1` (stereo not drawn) [Compound I-128], the EC50 is no more than 50 nM.

Regarding `C[C@H](CO)n1cnnc1-c1cccc(-c2ncc(-c3cccc(C4CCCCC4)c3)o2)n1` [Compound I-129], the 50% effective concentration (EC50) was no more than 50 nM.

On to `C[C@H](CO)n1cnnc1-c1cccc(-c2ncc(-c3cccc(C4=CCCCC4)c3)o2)n1` [Compound I-130], for which the concentration giving a half-maximal response (EC50) fell in the range of 50 to 500 nM.

Consider `CC(C)n1cnnc1-c1cccc(-c2ncc(-c3cccc(C4CCCCC4)c3)o2)n1` [Compound I-131], for which the EC50 was in the range of 500 to 5000 nM.

Consider `CC(C)n1cnnc1-c1cccc(-c2ncc(-c3cccc(C4=CCCCC4)c3)o2)n1` [Compound I-132], for which the EC50 was in the range of 50 to 500 nM.

On to `CC(C)n1cnnc1-c1cccc(-c2ncc(-c3cccc(C4CCCC4)c3)o2)n1` [Compound I-133], for which the half-maximal effective concentration (EC50) is 50 to 500 nM.

For `CC(C)n1cnnc1-c1cccc(-c2ncc(-c3cccc(C4=CCCC4)c3)o2)n1` [Compound I-134], the 50% effective concentration (EC50) fell in the range of 50 to 500 nM.
